We go through 14 molecules from patent US8822468B2 (Novartis AG, priority 2008, dated 2014).

The IC50 is the point on the concentration scale where inhibition reaches its midpoint.

The target of the assay is T1, cMET receptor tyrosine kinase (GST-cMET (969-1390)) (Homo sapiens, UniProt P08581).
T1 construct: made in house
T1 sequence (P08581 969-1390): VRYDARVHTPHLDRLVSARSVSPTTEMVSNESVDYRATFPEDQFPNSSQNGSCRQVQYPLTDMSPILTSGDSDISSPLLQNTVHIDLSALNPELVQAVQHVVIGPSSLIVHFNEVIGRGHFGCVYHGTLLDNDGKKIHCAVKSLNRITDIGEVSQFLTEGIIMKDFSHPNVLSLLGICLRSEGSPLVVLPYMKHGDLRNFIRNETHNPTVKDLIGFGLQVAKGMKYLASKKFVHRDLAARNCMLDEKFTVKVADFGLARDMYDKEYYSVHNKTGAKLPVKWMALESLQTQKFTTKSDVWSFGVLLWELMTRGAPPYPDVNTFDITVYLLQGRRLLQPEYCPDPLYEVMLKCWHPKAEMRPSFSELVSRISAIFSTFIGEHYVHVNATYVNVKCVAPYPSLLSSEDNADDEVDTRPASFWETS
Kind of assay: EPK cMET profiling assay (LanthaScreen TR-FRET antibody based kinase phosphorylation assay). The assay is classed as biochemical. The note with it: purified recombinant GST-cMET (969-1390), 2 μM ATP, 50 nM Fluorescein-PolyEAY, 60 minutes at room temperature; read-out: c-Met IC50. As for the experimental part: A number of compounds of the present invention were assayed in an antibody based kinase phosphorylation assay as follows.
EPK cMET Profiling Assay:
The EPK kinase assay for cMET receptor tyrosine kinase was developed, using the purified recombinant GST-fusion protein, containing the cytoplasmic domain of the enzyme. GST-cMET (969-1390) was purified by affinity chromatography.
The kinase assay is based on the LanthaScreen™ technology. LanthaScreen™ is the detection of Time-Resolved Fluorescence Resonance Energy Transfer (TR-FRET) using lanthanide chelates to measure interactions between various binding partners. In a TR-FRET kinase assay, a long-lifetime lanthanide donor species is conjugated to an antibody that specifically binds to a phosphorylated product of a kinase reaction that is labeled with a suitable acceptor fluorophore. This antibody-mediated interaction brings the lanthanide donor and the acceptor into proximity such that resonance energy transfer can take place, resulting in a detectible increase in the FRET signal.
The kinase reactions were performed in 384 well microtiter plates in a total reaction volume of 9.05 μL. The assay plates were prepared with 0.05 μL per well of test compound in the appropriate test concentration, as described under “preparation of compound dilutions”. The reactions were started by combining 4.5 μL of ATP solution with 4.5 μL of enzyme-substrate mix (consisting of kinase and substrate). The final concentrations in the kinase reactions were 35 mM Tris/HCl, 1 mM DTT, 0.025% Tween20, 10 μM sodium orthovanadate, 0.25% BSA, 0.6% DMSO, 10 mM MgCl2, 3 mM MnCl2, 2 μM ATP, 50 nM Fluorescein-PolyEAY, and 0.3 nM enzyme.
The reactions were incubated for 60 minutes at room temperature and stopped by adding 4.5 μL of stop buffer (50 mM EDTA, 0.04% NP40, 20 mM Tris/HCl).
Subsequently 4.5 μL of detection mix (50 mM Tris/HCl, 2 mM DTT, 0.05% Tween20, 20 μM sodium orthovanadate, 1% BSA, 1.72 μg/ml Tb-PY20 antibody) were added to the stopped reactions. After 30 minutes incubation at room temperature, the plates were measured in a BMG Pherastar fluorescence reader. The effect of compound on the enzymatic activity was in all assays obtained from the linear progress curves and determined from one reading (end point measurement).
Test compounds were dissolved in DMSO (10 mM) and transferred into 1.4 mL flat bottom or V-shaped Matrix tubes carrying a unique 2D matrix. The stock solutions were stored at −20° C. if not used immediately. For the test procedure the vials were defrosted and identified by a scanner whereby a working sheet was generated that guided the subsequent working steps.
Compound dilutions were made in 96 well plates. This format enabled the assay of maximally 40 individual test compounds at 8 concentrations (single points) including 4 reference compounds. The dilution protocol included the production of “pre-dilution plates”, “master plates” and “assay plates”.
Pre-dilution plates: 96 polypropylene well plates were used as pre-dilution plates. A total of 4 pre-dilution plates were prepared including 10 test compounds each on the plate positions A1-A10, one standard compound at A11 and one DMSO control at A12. All dilution steps were done on a HamiltonSTAR robot.
Master plates: 100 μL of individual compound dilutions including standard compound and controls of the 4 “pre-dilution plates” were transferred into a 384 “master plate” including the following concentrations 1,820, […], 182, 54.6, 18.2, 5.46, 1.82 and 0.546 μM, respectively in 90% of DMSO.
Assay plates: Identical “assay plates” were then prepared by pipetting 50 nL each of compound dilutions of the “master plates” into 384-well “assay plates” by means of a HummingBird 384-channel dispenser. These plates were used directly for the assay which was performed in a total volume of 9.05 μL. This led to a final compound concentration of 10, 3.0, 1.0, 0.3, 0.1, 0.03, 0.01 and 0.003 μM and a final DMSO concentration of 0.5% in the assay.
In general terms: Time-resolved FRET reads energy transfer from a long-lived donor to a nearby acceptor.
For the molecule `Cn1cc(-c2ccc3ncc(C(O)c4ccc5ncccc5c4)n3n2)cn1` (racemic) [Example 1, (rac)-[6-(1-Methyl-1H-pyrazol-4-yl)-imidazo[1,2-b]pyridazin-3-yl]-quinolin-6-yl-methanol], the IC50 came to 0.14 µM. As for `COc1ccc(C(O)c2cnc3ccc(-c4cnn(C)c4)nn23)cc1` (racemic) [Example 3, (rac)-(4-Methoxy-phenyl)-[6-(1-methyl-1H-pyrazol-4-yl)-imidazo[1,2-b]pyridazin-3-yl]-methanol], the figure is 3.95 µM; as for `Cn1cc(-c2ccc3ncc(C(O)c4ccc5nccn5c4)n3n2)cn1` (racemic) [Example 9, (rac)-Imidazo[1,2-a]pyridin-6-yl-[6-(1-methyl-1H-pyrazol-4-yl)-imidazo[1,2-b]pyridazin-3-yl]-methanol], 0.17 µM. On to `Cn1cc(-c2ccc3ncc(C(O)c4ccc5nccnc5c4)n3n2)cn1` (racemic) [Example 11, (rac)-[6-(1-Methyl-1H-pyrazol-4-yl)-imidazo[1,2-b]pyridazin-3-yl]-quinoxalin-6-yl-methanol], for which the IC50 was determined as 0.91 µM. As for `CC(C)CNc1ccc2ncc(C(O)c3ccc4ncccc4c3)n2n1` (racemic) [Example 77, (rac)-(6-Isobutylamino-imidazo[1,2-b]pyridazin-3-yl)-quinolin-6-yl-methanol], the figure is 0.225 µM. As for `CN(C(=O)OC(C)(C)C)C1CCN(c2ccc3ncc(Cc4ccc5ncccc5c4)n3n2)C1` (racemic) [Example 87, Methyl-[1-(3-quinolin-6-ylmethyl-imidazo[1,2-b]pyridazin-6-yl)-pyrrolidin-3-yl]-carbamic acid tert-butyl ester], the figure is 0.37 µM; as for `CNC1CCN(c2ccc3ncc(Cc4ccc5ncccc5c4)n3n2)C1` (racemic) [Example 119, (rac)-Methyl-[1-(3-quinolin-6-ylmethyl-imidazo[1,2-b]pyridazin-6-yl)-pyrrolidin-3-yl]-amine], 0.042 µM; as for `CC(c1ccc2c(c1)CCCN2)c1cnc2ccc(-c3cnn(C)c3)nn12` (racemic) [Example 156, (rac)-6-{1-[6-(1-Methyl-1H-pyrazol-4-yl)-imidazo[1,2-b]pyridazin-3-yl]-ethyl}-1,2,3,4-tetrahydroquinoline], 0.19 µM. As for `CC(c1ccc2ncccc2c1)c1cnc2ccc(-c3cnn(C)c3)nn12` (racemic) [Example 157, (rac)-6-{1-[6-(1-Methyl-1H-pyrazol-4-yl)-imidazo[1,2-b]pyridazin-3-yl]-ethyl}-quinoline], the figure is 0.007 µM; as for `CC(c1cc2cn[nH]c2cc1F)c1cnc2ccc(-c3cnn(C)c3)nn12` (racemic) [Example 164, (rac)-3-[1-(6-Fluoro-1H-indazol-5-yl)-ethyl]-6-(1-methyl-1H-pyrazol-4-yl)-imidazo[1,2-b]pyridazine], 0.054 µM.

Turning to `Cn1cc(-c2ccc3ncc(C(C)(O)c4cc5cccnc5cc4F)n3n2)cn1` (racemic) [Example 174, (rac)-1-(7-Fluoro-quinolin-6-yl)-1-[6-(1-methyl-1H-pyrazol-4-yl)-imidazo[1,2-b]pyridazin-3-yl]-ethanol], the IC50 was found to be 0.12 µM. As for `CC(c1ccc2ncccc2c1)c1cnc2ccc(-c3cnn(CCO)c3)nn12` (racemic) [Example 177, (rac)-2-{4-[3-(1-Quinolin-6-yl-ethyl)-imidazo[1,2-b]pyridazin-6-yl]-pyrazol-1-yl}-ethanol], the figure is 0.02 µM. Regarding `CC(c1c(F)cc2ncccc2c1F)c1cnc2ccc(-c3cnn(CCO)c3)nn12` (racemic) [Example 182, (rac)-2-(4-{3-[1-(5,7-Difluoro-quinolin-6-yl)-ethyl]-imidazo[1,2-b]pyridazin-6-yl}-pyrazol-1-yl)ethanol], the IC50 worked out at 0.003 µM.

Regarding `CC(c1ccc2ncn(C)c2c1)c1cnc2ccc(-c3cnn(CCO)c3)nn12` (racemic) [Example 185, (rac)-2-(4-{3-[1-(3-Methyl-3H-benzoimidazol-5-yl)-ethyl]-imidazo[1,2-b]pyridazin-6-yl}-pyrazol-1-yl)-ethanol], the IC50 came to 0.056 µM.
